Article PMC12655351, “Synthesis and Anticancer Activity Evaluation of New 5-((5-Nitrofuran-2-yl)allylidene)-2-thioxo-4-thiazolidinones” (Pharmaceuticals, 2025)

Experiments:
LOX IMVI = conditions: LOX IMVI, 48 h
M14 = test: NCI-60 SRB screen; conditions: M14, 48 h; for GI50 / CC50: Homo sapiens; for CC50: read-out: LC50, M14, 48 h
MDA-MB-435 = conditions: MDA-MB-435, 48 h
SK-MEL-28 [1] = conditions: SK-MEL-28, 48 h
Breast cancer = Breast cancer subpanel
HCT-116 = test: cells; conditions: Homo sapiens, HCT-116, 48 h
UACC-257 = test: cells; conditions: Homo sapiens, UACC-257, 48 h; for CC50: read-out: LC50, UACC-257, 48 h
RPMI-8226 = conditions: RPMI-8226, 48 h
MOLT-4 [2] = conditions: MOLT-4, 48 h
Colon cancer = test: NCI-60 SRB screen, subpanel; conditions: for MG_MID TGI: Colon cancer subpanel; for GI50 / CC50: Homo sapiens; for GI50: read-out: MG_MID GI50; for CC50: read-out: MG_MID LC50
HL-60(TB) = test: NCI-60 SRB screen; conditions: for TGI / GI50: HL-60(TB), 48 h; for GI50 / CC50: Homo sapiens, HL-60, 48 h; for CC50: read-out: LC50, HL-60(TB), 48 h
Ovarian cancer = Ovarian cancer subpanel
OVCAR-8 = test: cells; conditions: Homo sapiens, OVCAR-8, 48 h; for CC50: read-out: LC50, OVCAR-8, 48 h
EKVX = test: NCI-60 SRB screen; conditions: 48 h; for GI50 / CC50: Homo sapiens; for CC50: read-out: LC50, EKVX, 48 h
UO-31 = conditions: UO-31, 48 h
UACC-62 = test: NCI-60 SRB screen; conditions: UACC-62, 48 h; for GI50 / CC50: Homo sapiens; for CC50: read-out: LC50, UACC-62, 48 h
SN12C [3] = conditions: SN12C, 48 h
COLO 205 = conditions: COLO 205, 48 h
MOLT-4 [4] = test: cells; conditions: Homo sapiens, MOLT-4, 48 h; for CC50: read-out: LC50, MOLT-4, 48 h
SNB-75 = test: NCI-60 SRB screen; conditions: SNB-75, 48 h; for GI50 / CC50: Homo sapiens; for CC50: read-out: LC50, SNB-75, 48 h
SW-620 = test: NCI-60 SRB screen; conditions: SW-620, 48 h; for GI50: Homo sapiens
BT-549 = conditions: BT-549, 48 h
HOP-62 = test: NCI-60 SRB screen; conditions: HOP-62, 48 h; for GI50: Homo sapiens
Renal Cancer = Renal Cancer subpanel
HS 578T = conditions: 48 h
SF-539 = conditions: SF-539, 48 h
HCC-2998 = conditions: HCC-2998, 48 h
SK-MEL-5 = conditions: for TGI: SK-MEL-5, 48 h
SR = test: cells; conditions: Homo sapiens, 48 h; for CC50: read-out: LC50
OVCAR-4 [5] = conditions: OVCAR-4, 48 h
A549/ATCC = test: NCI-60 SRB screen; conditions: for TGI: 48 h; for GI50: Homo sapiens, A549, 48 h
DU-145 = conditions: DU-145, 48 h
SN12C [6] = test: cells; conditions: Homo sapiens, 48 h; for CC50: read-out: LC50, SN12C, 48 h
HCT-15 = test: NCI-60 SRB screen; conditions: HCT-15, 48 h; for GI50 / CC50: Homo sapiens; for CC50: read-out: LC50, HCT-15, 48 h
Prostate Cancer [7] = test: cells; conditions: Homo sapiens, read-out: MG_MID GI50
SK-MEL-28 [8] = test: cells; conditions: Homo sapiens, SK-MEL-28, 48 h; for CC50: read-out: LC50, SK-MEL-28, 48 h
OVCAR-4 [9] = test: cells; conditions: Homo sapiens, OVCAR-4, 48 h; for CC50: read-out: LC50, OVCAR-4, 48 h
T-47D = conditions: 48 h
Prostate Cancer [10] = conditions: Prostate Cancer subpanel

Structure (SMILES): CCCC(C(=O)O)N1C(=O)/C(=C/C=C/c2ccc([N+](=O)[O-])o2)SC1=S (centres unmarked) [4b, 2-((Z)-5-((E)-3-(5-Nitrofuran-2-yl)allylidene)-4-oxo-2-thioxothiazolidin-3-yl)pentanoic acid]
- TGI (LOX IMVI): 3.12 µM
- GI50 (M14): 1.83 µM
- CC50 (M14): 7.74 µM
- TGI (M14): 3.77 µM
- TGI (MDA-MB-435): 3.31 µM
- TGI (SK-MEL-28 [1]): 3.51 µM
- MG_MID TGI (Breast cancer): 5.00 µM
- GI50 (HCT-116): 1.82 µM
- GI50 (UACC-257): 1.96 µM
- CC50 (UACC-257): 14.8 µM
- TGI (RPMI-8226): 5.11 µM
- TGI (MOLT-4 [2]): 14.4 µM
- MG_MID TGI (Colon cancer): 3.41 µM
- GI50 (Colon cancer): 1.73 µM
- CC50 (Colon cancer): 6.48 µM
- TGI (HL-60(TB)): 6.43 µM
- GI50 (HL-60(TB)): 2.17 µM
- CC50 (HL-60(TB)): > 100 µM
- MG_MID TGI (Ovarian cancer): 8.71 µM
- GI50 (OVCAR-8): 1.98 µM
- CC50 (OVCAR-8): 13 µM
- TGI (EKVX): 7.77 µM
- GI50 (EKVX): 2.53 µM
- CC50 (EKVX): 27.7 µM
- TGI (UO-31): 3.33 µM
- GI50 (UACC-62): 1.5 µM
- CC50 (UACC-62): 5.9 µM
- TGI (UACC-62): 2.98 µM
- growth GP (SN12C [3]; 10 μM): -95.04%
- TGI (SN12C [3]): 4.05 µM
- TGI (COLO 205): 3.60 µM
- GI50 (MOLT-4 [4]): 3.3 µM
- CC50 (MOLT-4 [4]): > 100 µM
- GI50 (SNB-75): 1.53 µM
- CC50 (SNB-75): 6.99 µM
- TGI (SNB-75): 3.27 µM
- GI50 (SW-620): 1.55 µM
- TGI (SW-620): 3.08 µM
- TGI (BT-549): 3.37 µM
- TGI (HOP-62): 5.43 µM
- GI50 (HOP-62): 2.23 µM
- MG_MID TGI (Renal Cancer): 4.25 µM
- TGI (HS 578T): 10.1 µM
- TGI (SF-539): 4.77 µM
- TGI (HCC-2998): 3.33 µM
- TGI (SK-MEL-5): 2.79 µM
- GI50 (SR): 1.86 µM
- CC50 (SR): > 100 µM
- TGI (OVCAR-4 [5]): 19.1 µM
- TGI (A549/ATCC): 5.40 µM
- GI50 (A549/ATCC): 2.22 µM
- TGI (DU-145): 6.42 µM
- GI50 (SN12C [6]): 1.76 µM
- CC50 (SN12C [6]): 9.32 µM
- TGI (HCT-15): 3.39 µM
- GI50 (HCT-15): 1.65 µM
- CC50 (HCT-15): 6.97 µM
- GI50 (Prostate Cancer [7]): 2.65 µM
- GI50 (SK-MEL-28 [8]): 1.76 µM
- CC50 (SK-MEL-28 [8]): 6.98 µM
- GI50 (OVCAR-4 [9]): 6.03 µM
- CC50 (OVCAR-4 [9]): 44.3 µM
- TGI (T-47D): 5.49 µM
- MG_MID TGI (Prostate Cancer [10]): 8.56 µM

Structure (SMILES): CCCCC(C(=O)O)N1C(=O)/C(=C/C=C/c2ccc([N+](=O)[O-])o2)SC1=S (centres unmarked) [6b, 2-((Z)-5-((E)-3-(5-nitrofuran-2-yl)allylidene)-4-oxo-2-thioxothiazolidin-3-yl)hexanoic acid]
- TGI (LOX IMVI): 3.34 µM
- GI50 (M14): 1.83 µM
- CC50 (M14): 7.66 µM
- TGI (M14): 3.75 µM
- TGI (MDA-MB-435): 3.95 µM
- TGI (SK-MEL-28 [1]): 3.73 µM
- MG_MID TGI (Breast cancer): 7.71 µM
- GI50 (HCT-116): 1.73 µM
- GI50 (UACC-257): 1.93 µM
- CC50 (UACC-257): 9.62 µM
- TGI (RPMI-8226): 6.09 µM
- TGI (MOLT-4 [2]): 13.5 µM
- MG_MID TGI (Colon cancer): 3.57 µM
- GI50 (Colon cancer): 1.81 µM
- CC50 (Colon cancer): 6.66 µM
- TGI (HL-60(TB)): 10.1 µM
- GI50 (HL-60(TB)): 2.68 µM
- CC50 (HL-60(TB)): > 100 µM
- MG_MID TGI (Ovarian cancer): 9.10 µM
- GI50 (OVCAR-8): 2.12 µM
- CC50 (OVCAR-8): 13.8 µM
- TGI (EKVX): 5.74 µM
- GI50 (EKVX): 2.26 µM
- CC50 (EKVX): 19.7 µM
- TGI (UO-31): 3.29 µM
- GI50 (UACC-62): 1.38 µM
- CC50 (UACC-62): 5.61 µM
- TGI (UACC-62): 2.78 µM
- TGI (SN12C [3]): 4.00 µM
- TGI (COLO 205): 3.66 µM
- GI50 (MOLT-4 [4]): 3.28 µM
- CC50 (MOLT-4 [4]): 90.2 µM
- GI50 (SNB-75): 1.77 µM
- CC50 (SNB-75): 8.06 µM
- TGI (SNB-75): 3.77 µM
- GI50 (SW-620): 1.8 µM
- TGI (SW-620): 3.38 µM
- TGI (BT-549): 3.12 µM
- TGI (HOP-62): 5.20 µM
- GI50 (HOP-62): 2.25 µM
- MG_MID TGI (Renal Cancer): 5.37 µM
- TGI (HS 578T): 27.4 µM
- TGI (SF-539): 4.17 µM
- TGI (HCC-2998): 3.34 µM
- growth GP (SK-MEL-5; SK-MEL-5, 10 μM, 48 h): -99.30%
- TGI (SK-MEL-5): 2.77 µM
- GI50 (SR): 1.98 µM
- CC50 (SR): > 100 µM
- TGI (OVCAR-4 [5]): 19.0 µM
- TGI (A549/ATCC): 5.86 µM
- GI50 (A549/ATCC): 2.33 µM
- TGI (DU-145): 10.2 µM
- GI50 (SN12C [6]): 1.75 µM
- CC50 (SN12C [6]): 9.18 µM
- TGI (HCT-15): 3.58 µM
- GI50 (HCT-15): 1.71 µM
- CC50 (HCT-15): 7.47 µM
- GI50 (Prostate Cancer [7]): 3.29 µM
- GI50 (SK-MEL-28 [8]): 1.91 µM
- CC50 (SK-MEL-28 [8]): 7.29 µM
- GI50 (OVCAR-4 [9]): 6.12 µM
- CC50 (OVCAR-4 [9]): 44.5 µM
- TGI (T-47D): 4.03 µM
- MG_MID TGI (Prostate Cancer [10]): 10.8 µM
